According to patent US20180353472A1, “UNIT DOSE FORMULATIONS FOR USE AS AN ANTI-FUGETACTIC AGENT” (THE GENERAL HOSPITAL CORPORATION d.b.a MASSACHUSETTS …, priority 2015, published 2018):

Assays:
[1] = tested on: tumor that expresses high levels of CXCL12; conditions: mice, subcutaneous, dose between 0.000001% and 65% of the dose appropriate for recruiting stem cells, once a day for 5 days; assessed one to three days after final dose
Description: Mice are injected with tumor cells (subcutaneous injection) from a tumor that expresses high levels of CXCL12 and a tumor is allowed to develop.
One to three days after the final AMD3100 dose, mice are assessed for tumor growth and the reduction or knock down of fugetaxis.

[2] = tested on: breast cancer tumor which over-expresses CXCL12; conditions: human patient, dose between 0.000001% and 65% of the dose appropriate for recruiting stem cells, once a day for five days, optionally followed by a chemotherapeutic drug
Description: A human patient with a breast cancer tumor which over-expresses CXCL12 is administered AMD3100 at a dose between 0.000001% and 65% of the dose appropriate for recruiting stem cells once a day for five days, optionally followed by a chemotherapeutic drug.

c1cc(CN2CCCNCCNCCCNCC2)ccc1CN1CCCNCCNCCCNCC1 [AMD3100, 1, 1′-[1,4-phenylenebis (methylene)]-bis-1,4,8,11-tetraazacyclotetradecane] was tested, and the “anti-fugetactic effect (reduction or knock down of fugetaxis)” value [1] was “will have an anti-fugetactic effect”, the “T cell recruitment into the tumor” value [2] was “increased T cell recruitment into the tumor” and the patient survival [2] was “increase in patient survival”. For the same compound, the tumor volume [2] was “decrease in tumor volume”.
